{
  "source": "paper PMC8241751",
  "about": "“Influence of the Dabcyl group on the cellular uptake of cationic peptides: short oligoarginines as efficient cell-penetrating peptides” (Amino Acids, 2021)",
  "key": {"CHO-K1 cells [1]": {"test_system": "CHO-K1 cells", "assay": "Absolute quantification of total internalised peptide by fluorometry", "settings": "for Total (37 °C–4 °C) (pmoles) Endocyt. / 4 °C/37 °C (Fluoro): CHO-K1, 60 min; for Total (37 °C–4 °C) (pmoles) Endocyt.: difference of fluorometry values at 37 °C and 4 °C; for 4 °C/37 °C (Fluoro): internalisation ratio by fluorometry; for Total 4 °C (pmoles) Transloc. / Total 37 °C (pmoles) Endocyt. + Transloc.: one million CHO-K1 cells, DMEM-F12, 60 min, cell lysis, fluorometry 525 nm vs calibration curve, mean values; for Total 4 °C (pmoles) Transloc.: pronase wash; for Total 37 °C (pmoles) Endocyt. + Transloc.: trypsin wash", "procedure": "We used the quantification method described earlier (Illien et al. [2016]). […] After incubation with peptides and washing the cells with HBSS, 500 μL 0.05% trypsin/EDTA 0.05% (37 °C) or 500 µL pronase 0.05% in 100 mM Tris pH 7.4 (4 °C) was added for 5 min to hydrolyze the remaining extracellular peptide, the membrane-bound peptide and to detach cells. After addition of 100 µL enzyme inhibitors (complete mini at 4 °C (Roche) or trypsin inhibitor (soybean inhibitor 5 mg/mL) at 37 °C mixed with 100 μL bovine serum albumin (1 mg/mL), cells were transferred into a microtube, centrifuged, washed with 1 mL 50 mM Tris buffer pH 7.4, 0.1% BSA, and lysed in 200 μL 50 mM Tris pH 7.4, 1 M NaCl, 1% Nonident P40. The samples were then sonicated for 15 min (to homogenise samples) and centrifugated for 10 min at 16.000 g. Fluorescence intensity in the supernatants was monitored with a MOS 200 M fluorimeter (Biologic SAS) and the maximal intensity was detected around λ = 525 nm. The maximal intensity was retained for the calibration curve and for quantification of samples. The amount of internalised peptides was calculated by comparing the fluorescence intensity of the sample with the calibration curve. For the calibration curve, we prepared a range of peptide amounts (from 2 to 500 pmol) in the lysis buffer (50 mM Tris pH 7.4, 1 M NaCl, 1% Nonidet P40) in the presence of one million suspended cells. The samples were sonicated 15 min and centrifuged at 16.000 g for 10 min. Fluorescence intensity in the supernatants was monitored with a MOS 200 M fluorimeter (Biologic SAS, France) and the maximal intensity was detected around λ = 525 nm. The fluorescence signal of peptides only was obtained by subtracting the fluorescence intensity of cell lysates (autofluorescence) from the fluorescence intensity of the sample."}, "HL-60 cells [2]": {"test_system": "HL-60 cells", "assay": "Cellular uptake by flow cytometry on HL-60 cells", "type": "cell-based, human", "settings": "HL-60, 90 min, 37 °C, serum-free, concentrations of the two values not stated, Dabcyl quenches Cf", "procedure": "HL-60 cells were cultured as described above. To study the cellular uptake of fluorescent labelled compounds, 10^5 cells per well were plated on 24-well plates. After 24 h incubation at 37 °C, cells were treated with the compounds solved in the corresponding serum-free media for 90 min. The cellular uptake was analysed at 1, 5 and 10 µM concentrations. Cells treated with serum-free media for 90 min were used as control. After incubation, treatment solutions were removed and the cells were treated with 100 μL trypsin for 2 min to remove the membrane proteins in order to eliminate non-specific binding of conjugates. The effect of trypsin was terminated by 900 μL HPMI (glucose, NaHCO3, NaCl, HEPES, KCl, MgCl2, CaCl2, Na2HPO4·2H2O) (Kapus et al. [1994]) containing 10% foetal calf serum, and the cells were transferred from the plate to FACS-tubes. Cells were centrifuged at 216 g at 4 °C for 5 min and the supernatant was removed. After this procedure, cells were resuspended in 500 µL HPMI, and the intracellular fluorescence intensity of HL-60 cells was monitored (on channel FITC LP505; emission at λ = 505 nm; LP 505, BP 530/30) by flow cytometry (BD LSR II, BD Bioscience, San Jose, CA, equipped with 488 nm; Coherent Sapphire, 22 mW laser.) which is proportional to the cellular uptake. Data were analysed with FACSDiVa 5.0 software."}, "CHO-K1 cells [3]": {"test_system": "CHO-K1 cells", "assay": "Relative quantification of total internalised peptide by flow cytometry", "settings": "CHO-K1, 1 h, DMEM-F12, internalisation ratio by flow cytometry, intact cells, 20.000 cells", "procedure": "After incubation and washing the cells with HBSS, 500 μL 0.05% trypsin/EDTA 0.05% (37 °C) or 500 µL pronase 0.05% in 100 mM Tris-buffer (4 °C) was added for 5 min to hydrolyze the remaining extracellular peptide, the membrane-bound peptide and to detach cells. After addition of 100 µL enzyme inhibitors (complete mini at 4 °C (Roche) or trypsin inhibitor (soybean inhibitor 5 mg/mL) at 37 °C mixed with 100 μL bovine serum albumin (1 mg/mL). Cells were transferred into a microtube, centrifuged, washed with 1 mL 50 mM Tris-buffer pH 7.4, 0.1% BSA, and the cell pellet was suspended in 400 μL of PBS. The fluorescence of individual cells was analysed with a FACS Calibur flow cytometer. 20.000 cells were measured for each experimental condition. The mean fluorescence of a sample was obtained by subtracting the autofluorescence of cells from the measured mean fluorescence of cells in the presence of the peptide."}, "MCF-7 cells": {"test_system": "MCF-7 cells", "assay": "In vitro cytostatic activity (MTT) on MCF-7", "type": "cell-based, human", "settings": "3 h incubation, then 3 days in serum-containing medium, MTT assay, ± sd, three independent experiments with four parallels", "procedure": "The cells (HL-60 or MCF-7) were grown to confluency and were plated into 96-well plate with initial cell number of 5 × 10^3 per well. After 24 h incubation at 37 °C, cells were treated with the compounds at 1.28 × 10^–3–100 μM concentration range for 3 h in 200 μL final volume. Control cells were treated with serum free medium at 37 °C for 3 h. After incubation the cells were washed twice with serum free medium. For the analysis of the in vitro cytostatic effect, cells were cultured for an additional 72 h in serum containing medium. On day 4, MTT assay was carried out to determine the IC50 values of the compounds. Briefly, 45 μL of MTT solution was added to each well (2 mg/mL, dissolved in serum-free medium). […] The precipitated purple crystals were dissolved in 100 μL DMSO and the absorbance was determined at λ = 540 nm and λ = 620 nm using ELISA plate reader (iEMSReader, Labsystems, Finland). The percent of cytostasis was calculated using the following equation: Cytostatic effect (%) = [1 − (ODtreated/ODcontrol)] × 100; where ODtreated and ODcontrol correspond to the optical densities of the treated and the untreated control cells, respectively. […] The curves were defined using MicrocalTM Origin (version 9.2) software: cytostasis was plotted as a function of concentration, fitted to a sigmoidal curve, and based on this curve, the IC50 value was determined."}, "MDA-MB-231 cells": {"test_system": "MDA-MB-231 cells", "assay": "In vitro cytostatic activity (MTT) on MDA-MB-231", "type": "cell-based, human", "settings": "3 h incubation, then 3 days in serum-containing medium, MTT assay, ± sd"}, "HL-60 cells [4]": {"test_system": "HL-60 cells", "assay": "In vitro cytostatic activity (MTT) on HL-60", "type": "cell-based, human", "settings": "HL-60; 3 h incubation, then 3 days in serum-containing medium; MTT assay; ± sd, three independent experiments with four parallels", "procedure": "The cells (HL-60 or MCF-7) were grown to confluency and were plated into 96-well plate with initial cell number of 5 × 10^3 per well. After 24 h incubation at 37 °C, cells were treated with the compounds at 1.28 × 10^–3–100 μM concentration range for 3 h in 200 μL final volume. Control cells were treated with serum free medium at 37 °C for 3 h. After incubation the cells were washed twice with serum free medium. For the analysis of the in vitro cytostatic effect, cells were cultured for an additional 72 h in serum containing medium. On day 4, MTT assay was carried out to determine the IC50 values of the compounds. Briefly, 45 μL of MTT solution was added to each well (2 mg/mL, dissolved in serum-free medium). Following the 4 h incubation, plates were centrifuged at 900 g for 5 min, and the supernatant was removed. The precipitated purple crystals were dissolved in 100 μL DMSO and the absorbance was determined at λ = 540 nm and λ = 620 nm using ELISA plate reader (iEMSReader, Labsystems, Finland). The percent of cytostasis was calculated using the following equation: Cytostatic effect (%) = [1 − (ODtreated/ODcontrol)] × 100; where ODtreated and ODcontrol correspond to the optical densities of the treated and the untreated control cells, respectively. In each case three independent experiments were carried out with four parallel measurements. […] The curves were defined using MicrocalTM Origin (version 9.2) software: cytostasis was plotted as a function of concentration, fitted to a sigmoidal curve, and based on this curve, the IC50 value was determined."}},
  "note": "Where “and” joins values, the source holds several entries; their conditions need not be identical. Equal entries are not always repeated. Where a SMILES comes first, the peptide text is derived from it. The star is where a group is joined. 5FAM = O=C1OC2(c3ccc(O)cc3Oc3cc(O)ccc32)c2ccc(C(=O)*)cc21; X1 = CN(C)c1ccc(/N=N/c2ccc(C(=O)*)cc2)cc1",
  "data": [
    {"compound": "CN(C)c1ccc(/N=N/c2ccc(C(=O)N[C@@H](CCCNC(=N)N)C(=O)N[C@@H](CCCNC(=N)N)C(=O)N[C@@H](CCCNC(=N)N)C(=O)N[C@@H](CCCNC(=N)N)C(=O)N[C@@H](CCCCNC(=O)c3ccc4c(c3)C(=O)OC43c4ccc(O)cc4Oc4cc(O)ccc43)C(N)=O)cc2)cc1", "note": "[Dabcyl–Arg4–Lys(Cf)–NH2] (X1-RRRRK(5FAM)-NH2)", "values": [
      {"measurement": "Total (37 °C–4 °C) (pmoles) Endocyt.", "setting": "CHO-K1 cells [1]; [peptide] 1 μM", "value": 0.3, "unit": "pmol"},
      {"measurement": "4 °C/37 °C (Fluoro)", "setting": "CHO-K1 cells [1]; [peptide] 1 μM", "value": 0.57},
      {"measurement": "Total 4 °C (pmoles) Transloc.", "setting": "CHO-K1 cells [1]; [peptide] 1 μM", "value": "0.4 ± 0.06", "unit": "pmol"},
      {"measurement": "Total 37 °C (pmoles) Endocyt. + Transloc.", "setting": "CHO-K1 cells [1]; [peptide] 1 μM", "value": "0.7 ± 0.1", "unit": "pmol"},
      {"measurement": "Total (37 °C–4 °C) (pmoles) Endocyt.", "setting": "CHO-K1 cells [1]; [peptide] 2.5 μM", "value": 1.3, "unit": "pmol"},
      {"measurement": "4 °C/37 °C (Fluoro)", "setting": "CHO-K1 cells [1]; [peptide] 2.5 μM", "value": 0.43},
      {"measurement": "Total 4 °C (pmoles) Transloc.", "setting": "CHO-K1 cells [1]; [peptide] 2.5 μM", "value": "0.9 ± 0.1", "unit": "pmol"},
      {"measurement": "Total 37 °C (pmoles) Endocyt. + Transloc.", "setting": "CHO-K1 cells [1]; [peptide] 2.5 μM", "value": "2.2 ± 0.2", "unit": "pmol"},
      {"measurement": "Total (37 °C–4 °C) (pmoles) Endocyt.", "setting": "CHO-K1 cells [1]; [peptide] 5 μM", "value": 6, "unit": "pmol"},
      {"measurement": "4 °C/37 °C (Fluoro)", "setting": "CHO-K1 cells [1]; [peptide] 5 μM", "value": 0.22},
      {"measurement": "Total 4 °C (pmoles) Transloc.", "setting": "CHO-K1 cells [1]; [peptide] 5 μM", "value": "1.8 ± 0.1", "unit": "pmol"},
      {"measurement": "Total 37 °C (pmoles) Endocyt. + Transloc.", "setting": "CHO-K1 cells [1]; [peptide] 5 μM", "value": "7.8 ± 0.9", "unit": "pmol"},
      {"measurement": "Total (37 °C–4 °C) (pmoles) Endocyt.", "setting": "CHO-K1 cells [1]; [peptide] 10 μM", "value": 26, "unit": "pmol"},
      {"measurement": "4 °C/37 °C (Fluoro)", "setting": "CHO-K1 cells [1]; [peptide] 10 μM", "value": 0.14},
      {"measurement": "Total 4 °C (pmoles) Transloc.", "setting": "CHO-K1 cells [1]; [peptide] 10 μM", "value": "4.2 ± 0.3", "unit": "pmol"},
      {"measurement": "Total 37 °C (pmoles) Endocyt. + Transloc.", "setting": "CHO-K1 cells [1]; [peptide] 10 μM", "value": "30 ± 3.3", "unit": "pmol"},
      {"measurement": "Fluorescence intensity of the cells, times higher than hexaarginine", "setting": "HL-60 cells [2]", "value": "1.6 times and 2.8 times"},
      {"measurement": "4 °C/37 °C (Flow cyto.)", "setting": "CHO-K1 cells [3]; [peptide] 1 μM", "value": 0.17},
      {"measurement": "4 °C/37 °C (Flow cyto.)", "setting": "CHO-K1 cells [3]; [peptide] 2.5 μM", "value": 0.12},
      {"measurement": "4 °C/37 °C (Flow cyto.)", "setting": "CHO-K1 cells [3]; [peptide] 5 μM", "value": 0.10},
      {"measurement": "4 °C/37 °C (Flow cyto.)", "setting": "CHO-K1 cells [3]; [peptide] 10 μM", "value": 0.04}
    ]},
    {"compound": "COc1cccc2c1C(=O)c1c(O)c3c(c(O)c1C2=O)C[C@@](O)(C(C)=O)C[C@@H]3O[C@H]1C[C@H](NC(=O)CCC(=O)O)[C@H](O)[C@H](C)O1", "note": "[Suc–Dau, reference compound]", "values": [
      {"measurement": "IC50", "setting": "MCF-7 cells", "value": "24.5 ± 7.1", "unit": "µM"},
      {"measurement": "IC50", "setting": "MDA-MB-231 cells", "value": "> 100", "unit": "µM"},
      {"measurement": "IC50", "setting": "HL-60 cells [4]", "value": "33.5 ± 1.1", "unit": "µM"}
    ]},
    {"compound": "Dabcyl–RRRRK(MTX)–NH2 [Dabcyl–Arg4–Lys(MTX)–NH2]", "values": [
      {"measurement": "IC50", "setting": "MDA-MB-231 cells", "value": "70.9 ± 30.1", "unit": "µM"}
    ]},
    {"compound": "Dabcyl–RRRRRRK(MTX)–NH2 [Dabcyl–Arg6–Lys(MTX)–NH2]", "values": [
      {"measurement": "IC50", "setting": "MCF-7 cells", "value": "46.4 ± 18.5", "unit": "µM"},
      {"measurement": "IC50", "setting": "MDA-MB-231 cells", "value": "50.2 ± 16", "unit": "µM"}
    ]}
  ]
}
